# Read-outs that look alike come from different tables or passages of the source.
# How the values were obtained:
# [1] = Relative lipophilicity (capacity factor k’) by reversed-phase HPLC; type: physicochemical; conditions: methanol-phosphoric acid buffer eluent, pH 2
# Procedure: The relative lipophilicity of 6 was determined as capacity factor k’ (k’ = (tretention - tsolvent) / tsolvent) by reversed-phase HPLC using a methanol-phosphoric acid buffer eluent system at pH 2. […] This method has already been described elsewhere. The capacity factor k’ (k’ = (tretention - tsolvent) / tsolvent) was determined using reversed-phase HPLC and enables different (radio)folates to be compared based on their polarity. The values determined can be used to give hint to the in vivo behavior in terms of the degree of hepatobiliary excretion by comparison with literature examples.
# folate receptor = biological target: T1, folate receptor (Homo sapiens, UniProt P15328); experiment: Displacement assay with [^3H]folic acid on FR-positive human KB cells; type: binding
# T1 construct: using [^3H]folic acid and human KB cells in cell suspension; endogenous in cells; host or cells: human KB cells
# T1 sequence (P15328 25-257): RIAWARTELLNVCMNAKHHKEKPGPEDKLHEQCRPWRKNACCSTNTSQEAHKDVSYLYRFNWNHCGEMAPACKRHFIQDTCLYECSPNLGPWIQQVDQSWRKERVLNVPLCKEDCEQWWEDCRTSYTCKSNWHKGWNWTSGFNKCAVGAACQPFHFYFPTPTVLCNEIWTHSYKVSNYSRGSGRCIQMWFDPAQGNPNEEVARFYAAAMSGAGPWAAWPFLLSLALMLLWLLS
# Procedure: FR-positive human KB cells were kept under folate-deficient conditions to adjust the folate concentration levels to that of the human serum.
# Figure 1 Displacement assay. […] Experiments were conducted in triplicate (n = 3).
# [2] = reversed-phase HPLC; cited from earlier work
# KB tumor-bearing mice = conditions: 45 min p.i., n = 4, cited from earlier work
capacity factor k’ [1],IC50 (folate receptor) [nM],Ki (folate receptor) [nM],Structure (SMILES),capacity factor k’ [2],Ratio of tumor to Kidney (KB tumor-bearing mice),Ratio of tumor to Liver (KB tumor-bearing mice),%ID/g Blood (KB tumor-bearing mice; Blood) [%ID/g],%ID/g Bone (KB tumor-bearing mice; Bone) [%ID/g],%ID/g Feces (KB tumor-bearing mice; Feces) [%ID/g],%ID/g Gall bladder (KB tumor-bearing mice; Gall bladder) [%ID/g],%ID/g Heart (KB tumor-bearing mice; Heart) [%ID/g],%ID/g Intestines (empty) (KB tumor-bearing mice; Intestines (empty)) [%ID/g],%ID/g Tumor (KB tumor-bearing mice; KB tumor) [%ID/g],%ID/g Kidneys (KB tumor-bearing mice; Kidneys) [%ID/g],%ID/g Liver (KB tumor-bearing mice; Liver) [%ID/g],%ID/g Lung (KB tumor-bearing mice; Lung) [%ID/g],%ID/g Spleen (KB tumor-bearing mice; Spleen) [%ID/g],%ID/g Stomach (empty) (KB tumor-bearing mice; Stomach (empty)) [%ID/g]
1.12,3.1,1.6,Nc1nc2ncc(CNc3ccc(C(=O)N[C@@H](CCC(=O)NCCOCCOCCOCCn4cc(COCCOCCOCCF)nn4)C(=O)O)cc3)nc2c(=O)[nH]1 [Compound 6],–,–,–,–,–,–,–,–,–,–,–,–,–,–,–
–,–,–,Nc1nc2ncc(CNc3ccc(C(=O)NC(CCC(=O)NCCCCn4cc(CCCC[18F])nn4)C(=O)O)cc3)nc2c(=O)[nH]1 (stereo not drawn) [^18 F-click folate],2.28,0.19 ± 1.38,1.18 ± 0.69,0.13 ± 0.01,0.13 ± 0.01,56.00 ± 27.64,667.4 ± 530.1,0.90 ± 0.22,19.59 ± 5.26,3.13 ± 0.83,16.53 ± 2.22,1.71 ± 0.14,0.85 ± 0.04,0.33 ± 0.12,2.50 ± 0.6

# Reference: PMC3849131, “^18 F-click labeling and preclinical evaluation of a new ^18 F-folate for PET imaging” (EJNMMI Research, 2013)
